From patent publication US7935680B2, “Methods for modulating the axonal growth of central nervous system neurons” (Children's Medical Center Corporation, priority 1997, dated 2011)
“Also recorded” adds a separate entry of the source.

Assays:
Assay type in all cases: cell-based
[1] = test system: goldfish retinal ganglion cells; assay: Axonal outgrowth from dissociated goldfish retinal ganglion cell cultures; details: for decline of AF-1 activity: n.s.; for effect of reducing agents on outgrowth stimulated by AF-1: a-tocopherol 30 μM, MEG 100 μM
Description: Axogenesis factor-1 was obtained essentially as described in Schwalb et al., 1995, and Schwalb et al., Neuroscience, 72: 901-910, 1996, the contents of which are incorporated herein by reference). Optic nerves were dissected, cut into fragments 1 mm in length, and incubated in a ratio of 6 nerves in 3 ml of either L-15 media (Gibco BRL) or phosphate-buffered saline (Gibco BRL). After 3-4 hours, nerve fragments were removed by filtering through a 0.22 μm pore low protein-binding filter (Gelman). A low molecular weight fraction of the conditioned media was prepared by ultrafiltration, first with a molecular weight cut-off of 3 kDa (Amicon Centriprep-3), then with a cut-off of 1 kDa (Filtron). The filtrate was used as a positive control at 20-30% final concentration. […] Goldfish (Comet Variety, Mt. Parnell Fisheries, Mt. Parnell Pa.), 6-10 cm in length, were dark-adapted and their retinas dissected. Retinas were incubated with papain (20 μg/ml), activated with cysteine (2.8 mM) for 30 minutes at room temperature, then dissociated by gentle trituration. […] Neuroscience 15: 5514-5625, 1995, the contents of which are incorporated herein by reference). […] Cells were maintained at 21° C. in serum free, defined media containing insulin, selenium, transferrin, bovine serum albumin, catalase, superoxide dismutase, hormones, and vitamins in Eagle's L-15 media as described in Schwalb et al., 1995, the contents of which are incorporated herein by reference). Dissociated cultures of purified rat retinal ganglion cells were prepared by immunopanning as described in Barres et al., Neuron, 1: 791-803, 1988, the contents of which are incorporated herein by reference). In brief, retinas from postnatal day 8 Sparague-Dawley rats were dissociated using papain activated with cysteine. Macrophages were removed by incubation with an anti-rat macrophage antibody (Accurate) followed by immunopanning with an anti-rabbit 1gG antibody. Ganglion cells were isolated by immunopanning with an anti-Thy-1 antibody, then dislodged with trypsin for use in low-density cultures. Rat retinal ganglion cells were maintained at 37° C. in a CO2 incubator using the same medium described above except for the presence of 30 mM bicarbonate. In a typical experiment, samples were plated in quadruplicate in randomized positions of a 24-well plate and the code was concealed to ensure that growth was evaluated in a blinded fashion. Each experiment contained 4 wells of a negative control (media plus supplements only) and 4 wells of a positive control (a standardized AF-1 sample of known activity). […] After the completion of counting, the code was broken, the data tabulated, and means and standard errors were calculated for the 4 replicate wells of each sample using Cricket Graph (CA Associates, […].). […] Group comparisons were based upon pairwise, 2-tailed Student's t-tests. Several independent experiments were performed for most samples, as noted in the figure legends. […] Cell survival is reported as the number of viable RGCs per high-powered field.

[2] = test system: goldfish retinal ganglion cells; assay: Cell survival in goldfish retinal ganglion cell cultures (viable RGCs per field)
Description: Goldfish (Comet Variety, Mt. Parnell Fisheries, Mt. Parnell Pa.), 6-10 cm in length, were dark-adapted and their retinas dissected. Retinas were incubated with papain (20 μg/ml), activated with cysteine (2.8 mM) for 30 minutes at room temperature, then dissociated by gentle trituration. […] Low density cultures were achieved by plating c. 5×10^3 cells/well into poly L-lysine coated, 24-well culture dishes (Costar, Cambridge, Mass.). […] In brief, retinas from postnatal day 8 Sparague-Dawley rats were dissociated using papain activated with cysteine. Macrophages were removed by incubation with an anti-rat macrophage antibody (Accurate) followed by immunopanning with an anti-rabbit 1gG antibody. Ganglion cells were isolated by immunopanning with an anti-Thy-1 antibody, then dislodged with trypsin for use in low-density cultures. Rat retinal ganglion cells were maintained at 37° C. in a CO2 incubator using the same medium described above except for the presence of 30 mM bicarbonate.
In a typical experiment, samples were plated in quadruplicate in randomized positions of a 24-well plate and the code was concealed to ensure that growth was evaluated in a blinded fashion. Each experiment contained 4 wells of a negative control (media plus supplements only) and 4 wells of a positive control (a standardized AF-1 sample of known activity). Growth and survival were assessed after 6 days for all ganglion cells in 25 consecutive fields of each well using phase contrast microscopy at 400× magnification (c. 150 ganglion cells counted per well). […] After the completion of counting, the code was broken, the data tabulated, and means and standard errors were calculated for the 4 replicate wells of each sample using Cricket Graph (CA Associates, Islandia, N.Y.). Data were normalized by subtracting the growth in the negative controls (usually 4-5%) and dividing by the net growth in the positive controls. […] Group comparisons were based upon pairwise, 2-tailed Student's t-tests. Several independent experiments were performed for most samples, as noted in the figure legends. In some cases, cell viability was assessed with the dye 5,6-carboxyfluorescein diacetate. Cell survival is reported as the number of viable RGCs per high-powered field.

[3] = test system: rat retinal ganglion cells; assay: Axonal outgrowth from purified rat retinal ganglion cells; details: 6-TG 10 μM, rat RGCs
Description: Goldfish (Comet Variety, Mt. Parnell Fisheries, Mt. Parnell Pa.), 6-10 cm in length, were dark-adapted and their retinas dissected. Retinas were incubated with papain (20 μg/ml), activated with cysteine (2.8 mM) for 30 minutes at room temperature, then dissociated by gentle trituration. Repeated cycles of trituration and sedimentation yielded cultures nearly homogeneous in ganglion cells, which are readily identified by their oval shape, phase-bright appearance, size (diameter 15 μm), and extension of only 1 or 2 neurites of uniform caliber; these criteria have been verified by retrograde labeling (see Schwartz & Agranoff, Brain Res. 206: 331-343, 1981 and Schwalb et al., J. Neuroscience 15: 5514-5625, 1995, the contents of which are incorporated herein by reference). Low density cultures were achieved by plating c. 5×10^3 cells/well into poly L-lysine coated, 24-well culture dishes (Costar, Cambridge, Mass.). Cells were maintained at 21° C. in serum free, defined media containing insulin, selenium, transferrin, bovine serum albumin, catalase, superoxide dismutase, hormones, and vitamins in Eagle's L-15 media as described in Schwalb et al., 1995, the contents of which are incorporated herein by reference). Dissociated cultures of purified rat retinal ganglion cells were prepared by immunopanning as described in Barres et al., Neuron, 1: 791-803, 1988, the contents of which are incorporated herein by reference). In brief, retinas from postnatal day 8 Sparague-Dawley rats were dissociated using papain activated with cysteine. Macrophages were removed by incubation with an anti-rat macrophage antibody (Accurate) followed by immunopanning with an anti-rabbit 1gG antibody. Ganglion cells were isolated by immunopanning with an anti-Thy-1 antibody, then dislodged with trypsin for use in low-density cultures. Rat retinal ganglion cells were maintained at 37° C. in a CO2 incubator using the same medium described above except for the presence of 30 mM bicarbonate.
In a typical experiment, samples were plated in quadruplicate in randomized positions of a 24-well plate and the code was concealed to ensure that growth was evaluated in a blinded fashion. Each experiment contained 4 wells of a negative control (media plus supplements only) and 4 wells of a positive control (a standardized AF-1 sample of known activity). Growth and survival were assessed after 6 days for all ganglion cells in 25 consecutive fields of each well using phase contrast microscopy at 400× magnification (c. 150 ganglion cells counted per well). Extension of a process 5 cell diameters in length was the criterion for growth, since it clearly distinguishes stimulated cells from negative controls (see Schwalb et al., 1995). After the completion of counting, the code was broken, the data tabulated, and means and standard errors were calculated for the 4 replicate wells of each sample using Cricket Graph (CA Associates, Islandia, N.Y.). Data were normalized by subtracting the growth in the negative controls (usually 4-5%) and dividing by the net growth in the positive controls. In the most favorable experiments, more than 50% of retinal ganglion cells (RGCs) exposed to AF-1 extended axons 5 cell diameters in length after 6 days. Group comparisons were based upon pairwise, 2-tailed Student's t-tests. Several independent experiments were performed for most samples, as noted in the figure legends. In some cases, cell viability was assessed with the dye 5,6-carboxyfluorescein diacetate. […]

[4] = DCF alone, with AF-1, or with guanosine

8-bromoadenosine-3′,5′ cyclic monophosphorothioate [Sp-8-Br-cAMPS]
axonal outgrowth activity ([1]; concentrations up to 1 mM): inactive

CCCCCC[C@@H]([C@@H](C)O)n1cnc2c(N)ncnc21 (racemic) [EHNA, erythro-9-(2-hydroxy-3-nonyl) adenine]
effect on adenosine-stimulated outgrowth ([1]; 10 μM EHNA, 100 μM adenosine): rendered adenosine (100 μM) ineffective in stimulating outgrowth | reduction of growth stimulated by guanosine or AF-1 ([1]; EHNA 10 μM): about 50% | cell survival [2]: not altering cell survival

Nc1nc(Cl)nc2c1ncn2[C@@H]1O[C@H](CO)[C@@H](O)[C@H]1O [2-CA, 2-chloroadenosine]
growth relative to baseline ([1]; 100 μM, FIG. 2): diminishes growth below baseline levels | growth relative to baseline ([1]; 10 and 100 μM, 3 out of 3 experiments): small but significant decrease in growth below the baseline

Nc1nc2nc[nH]c2c(=S)[nH]1 [6-TG, 6-thioguanine]
effect on growth stimulated by 100 μM inosine or 100 μM guanosine ([1]; 6-TG 10 μM): no effect; also recorded: unaffected | effect on growth stimulated by AF-1 ([1]; 6-TG 10 μM): blocked all growth stimulated by AF-1; also recorded: suppressed growth induced by AF-1 below baseline; also recorded: completely blocked | effect on CNTF-induced outgrowth [3]: blocked CNTF-induced outgrowth; also recorded: inhibited

Nc1nc2c(nc(Br)n2[C@@H]2O[C@@H]3COP(=O)(O)O[C@H]3[C@H]2O)c(=O)[nH]1 [8-Br cGMP, 8-bromo cyclic GMP]
axonal outgrowth activity ([1]; tested at concentrations between 1-100 μM): Neither dibutyryl cAMP (dBcAMP) nor 8-Br cGMP showed any activity

Cn1c(=O)c2[nH]c(-c3ccc(S(=O)(=O)O)cc3)nc2n(C)c1=O [8-PST, 8-p-(sulfophenyltheophylline)]
effect on outgrowth stimulated by adenosine, guanosine, or AF-1 ([1]; 8-PST at 20 μM): no effect | effect on outgrowth stimulated by AF-1, 100 μM adenosine or 100 μM guanosine ([1]; addition of 20 pM 8-PST): unaffected

Nc1nc2c(nc(Sc3ccc(Cl)cc3)n2[C@@H]2O[C@@H]3COP(=O)(O)O[C@H]3[C@H]2O)c(=O)[nH]1 [8-pcpt-cGMP, 8-(4-chlorophenylthio) guanosine-3′,5′-cyclic monophosphate]
axonal outgrowth activity ([1]; concentrations up to 1 mM): inactive

Nc1ncnc2c1ncn2[C@@H]1O[C@H](COP(=O)(O)OP(=O)(O)O)[C@@H](O)[C@H]1O [ADP, adenosine diphosphate]
axonal outgrowth activity ([1]; at 100 μM): marginally significant level of activity

Nc1ncnc2c1ncn2[C@@H]1O[C@H](COP(=O)(O)O)[C@@H](O)[C@H]1O [AMP, adenosine 5′ monophosphate]
axonal outgrowth activity ([1]; at 100 μM): marginally significant level of activity

Nc1ncnc2c1ncn2[C@@H]1O[C@H](COP(=O)(O)OP(=O)(O)OP(=O)(O)O)[C@@H](O)[C@H]1O [ATP, adenosine triphosphate]
axonal outgrowth activity ([1]; at 10 μM): marginally significant level of activity | axonal outgrowth activity ([1]; at 100 μM): not at 100 μM

OC[C@H]1O[C@@H](n2cnc3c2NC=NC[C@H]3O)C[C@@H]1O [DCF, deoxycoformycin]
effects of DCF on outgrowth [1, 4]: did not occur | effects of DCF on survival [2, 4]: did not occur

O=[N+]([O-])c1ccc(CSc2ncnc3c2ncn3C2OC(CO)C(O)C2O)cc1 (centres unmarked) [NBTI, nitrobenzylthio inosine]
effect on the activity of AF-1 ([1]; NBTI 20 μM): no effect | loss of activity of inosine ([1]; NBTI 20 μM, 50 μM inosine): 86% | loss of activity of guanosine ([1]; NBTI 20 μM, 100 μM guanosine): 93% | decline of AF-1 activity ([1]; NBTI 20 μM, dipyridamole 10 μM): 10%

Cc1c(C)c2c(c(C)c1O)CC[C@@](C)(CCC[C@H](C)CCC[C@H](C)CCCC(C)C)O2 [a-tocopherol]
effect of reducing agents on outgrowth stimulated by AF-1 [1]: no effect; also recorded: not mimicked

OCCN(CCO)c1nc(N2CCCCC2)c2nc(N(CCO)CCO)nc(N3CCCCC3)c2n1 [dipyridamole]
effect of transport inhibitors on 6-TG blockade of AF-1-stimulated outgrowth ([1]; 6-TG 10 μM, NBTI 20 μM, dipyridamole 10 μM): failed to prevent 6-TG from blocking outgrowth; also recorded: not restored | decline of AF-1 activity ([1]; NBTI 20 μM, dipyridamole 10 μM): 25%

O=c1[nH]cnc2nc[nH]c12 [hypoxanthine]
axonal outgrowth activity ([1]; dose-response, FIG. 4): no activity at all | axonal outgrowth activity ([1]; dose-response, FIG. 4, listed as Hypoxanthine): inactive

glutathione a-methyl ester [MEG]
effect of reducing agents on outgrowth stimulated by AF-1 [1]: no effect; also recorded: not mimicked
